Test results taken from publication PMC9959553, “Promising Antifungal Molecules against Mucormycosis Agents Identified from Pandemic Response Box®: In Vitro and In Silico Analyses” (Journal of Fungi, 2023).

These molecules were tested on R. oryzae UCP1295 (assay: Screening of the Pandemic Response Box library at 5 µM). Conditions: 48 h, Table S1, mean of the four values.
Assay type: cell-based, Rhizopus oryzae
Outline: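 Compounds at 5 μM in RPMI 1640 with 2% glucose and MOPS (0.165 mol/L, pH 7.2), with conidia at 2 × 10^5/mL, incubated 48 h at 37 °C in 5% CO2. Growth read by OD at 600 nm; hits defined as ≥60% inhibition. Posaconazole (5 μM) and 1% DMSO as controls.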

| SMILES | % of growth inhibition, Mean [%] |
| --- | --- |
| CC(C)(C)c1ccc(C(Cn2cccc(C(F)(F)F)c2=O)NC2Cc3ccccc3C2)cc1 (stereo not shown) [MMV1634393] | -0.4 |
| C[C@H]1CC[C@@]2(O)C(C)(C)[C@@H]3CC[C@@]2(C)[C@H]1C3 [MMV1578556] | -4.8 |
| CN(C)c1[nH]c(=O)ncc1F [MMV1782223] | -26.3 |
| CN(C(=O)C1(c2ccc(Cl)cc2)CCC1)c1ccccc1 [MMV1581030] | -7.5 |
| c1ccc(-c2nnc3c4ccccc4c(N4CCNCC4)nn23)cc1 [MMV1581551] | -11.4 |
| COc1ccc2c(c1OC)C(=O)OC2C1c2c(cc3c(c2OC)OCO3)CCN1C (stereo not shown) [MMV002780] | -7.9 |
| CC[C@H](CO)NCCN[C@H](CC)CO [MMV687801] | -13.2 |
| CC(C)(C)c1ccc(OCCn2nc(C(=O)O)c3ccccc3c2=O)cc1 [MMV1634387] | -15.4 |
| Cc1nc2ccc(Cl)cc2c(-c2ccccc2)c1CC(=O)O [MMV1580801] | -8.7 |
| Nc1ccc2oc(=O)ccc2c1I [MMV1581378] | -3.7 |
| O=C(NCc1ccc(F)cc1)c1c(O)c2ncccc2[nH]c1=O [MMV1782097] | 3.9 |
| O=C(O)c1sccc1S(=O)(=O)n1ccc2cc(Br)ccc21 [MMV1580855] | -1.0 |
| COc1cccc(N2CCN(C3=Nc4c(F)cccc4[C@H](CC(=O)O)N3c3cc(C(F)(F)F)ccc3OC)CC2)c1 [MMV690653] | -6.7 |
| OB1OCc2c1ccc(Cl)c2F [MMV1782226] | -20.0 |
| N[C@@H]1CN(c2c(F)cc3c(=O)c(C(=O)O)cn([C@@H]4C[C@@H]4F)c3c2Cl)CC12CC2 [MMV1579850] | -4.9 |
| O=C1C=C(c2ccccc2)S(=O)(=O)c2ccccc21 [MMV1006203] | -8.8 |
| COc1nc2ccc(Br)cc2cc1[C@@H](c1ccccc1)[C@@](O)(CCN(C)C)c1cccc2ccccc12 [MMV689758] | -19.9 |
| C[C@H]1COc2c(N3CCN(C)CC3)c(F)cc3c(=O)c(C(=O)O)cn1c23 [MMV687798] | -8.6 |
| Cc1nc2ccc(Oc3ccccc3)cc2c2c1CCN2CCc1ccccc1 [MMV1634399] | -16.3 |
| CC1(C)CC(NC(=O)C(=O)Nc2ccc(Cl)cc2)CC(C)(C)N1 [MMV1580501] | -11.4 |
| Cc1[nH]c2ccccc2c1CCNCc1ccc(/C=C/C(=O)NO)cc1 [MMV010036] | 1.8 |

| SMILES | % of growth inhibition, Mean [%] |
| --- | --- |
| COC(=O)Nc1nc2ccc([S+]([O-])c3ccccc3)cc2[nH]1 (stereo not shown) [MMV002565] | -39.5 |
| O=c1cc(OCc2ccccc2)ccn1Cc1ccccc1 [MMV1579775] | -7.1 |
| COc1cc(Cc2cnc(N)nc2N)cc(OC)c1OC [MMV000028] | -4.5 |
| CC(C)Cn1c(=O)n(C)c(=O)c2c(-c3cncn3C)n(Cc3cccc4ccccc34)nc21 [MMV1581559] | -18.9 |
| COc1cc(NC(=O)CN2C(=O)NC(c3ccccc3)(c3ccccc3)C2=O)cc(OC)c1 [MMV1578572] | -14.6 |
| COc1ccc(CNC(=O)C(NS(=O)(=O)c2ccc3nc(C)sc3c2)C(C)C)cc1 (stereo not shown) [MMV303733] | -8.6 |
| CCc1cc(Nc2cc(=O)n(CCN3CCN(C(=O)c4ccccc4)CC3)c(=O)[nH]2)ccc1C [MMV1634383] | -3.9 |
| N[C@H]1CCC[C@H]1C(=O)O [MMV1634361] | -8.8 |
| CCn1cc(C(=O)O)c(=O)c2cc(F)c(N3CCNC(C)C3)c(F)c21.Cl (stereo not shown) [MMV002350] | -4.3 |
| O=c1cc(NCCCN[C@@H]2CCOc3c(Br)cc(Br)cc32)[nH]c2ccsc12 [MMV1578884] | -1.3 |
| Cl.Nc1nc(-c2ccccc2)nc2c1ncn2[C@@H]1O[C@H](COS(=O)(=O)NC(=O)c2ccccc2O)[C@@H](O)[C@H]1O [MMV1582488] | -7.5 |
| NC(=O)c1ccc(I)c([N+](=O)[O-])c1 [MMV1581035] | -5.0 |
| CCc1cc(CCC(=O)Nc2ccccc2O)c(=O)[nH]c1C [MMV1782106] | -2.0 |
| CCC(C)NCC(O)Cn1c2ccc(Cl)cc2c2cc(Cl)ccc21 (stereo not shown) [MMV1578570] | -22.7 |
| O=C(N[C@H](Cc1cccc2ccccc12)C(=O)NCCc1c[nH]cn1)C1Cc2ccccc2C1 [MMV1782109] | -14.0 |
| CCc1ccccc1OCCN1CCCCCC1 [MMV1633962] | -12.2 |
| O=c1cc(Nc2ccc3ccccc3c2)[nH]c(=O)[nH]1 [MMV1581546] | -6.0 |
| COC(=O)Nc1nc2ccccc2[nH]1 [MMV344625] | -13.3 |
| C=CCc1cc(Cc2cnc(N)nc2N)cc(OC)c1O [MMV1580849] | -19.9 |
| O=[N+]([O-])c1cn(Cc2nc(O)nc(O)c2Br)cn1 [MMV1579777] | -6.3 |
| O=C(NNC(=S)Nc1ccc(Cl)cc1)c1ccncc1 [MMV1782227] | -24.0 |

| SMILES | % of growth inhibition, Mean [%] |
| --- | --- |
| COc1ccc(C2CNC(=O)C2)cc1OC1CCCC1 (stereo not shown) [MMV003738] | -1.4 |
| CC(C)n1cnc2c(NCc3ccccc3)nc(NCc3ccccc3)nc21 [MMV1579780] | -15.2 |
| Cc1oncc1C(=O)Nc1ccc(C(F)(F)F)cc1 [MMV003291] | 4.9 |
| CC(C)N=c1cc2n(-c3ccc(Cl)cc3)c3ccccc3nc-2cc1Nc1ccc(Cl)cc1 [MMV687800] | -1.7 |
| OC1O[C@H](CSc2ccc(F)cc2)[C@@H](O)[C@H]1O (stereo partly shown) [MMV1581550] | -29.6 |
| CC(=O)Nc1cc(NS(=O)(=O)c2ccc(Cl)cc2)cc2c(Cl)n[nH]c12 [MMV1579779] | -33.3 |
| CC(C)=CCC/C(C)=C\CNCCNC1C2CC3CC(C2)CC1C3 (stereo not shown) [MMV687273] | -3.3 |
| CCCCSc1nc(N)c2[nH]c(=O)c(=O)n(Cc3ccccc3)c2n1 [MMV1579783] | -34.5 |
| CCc1cc(O)c(Oc2cccnc2N)cc1F [MMV1580854] | -36.7 |
| Cc1ncc([N+](=O)[O-])n1CC(O)CN1CCOCC1 (stereo not shown) [MMV1613562] | -0.4 |
| C[C@H](NC(=O)C(=O)Nc1ccccc1C(C)(C)C)C(=O)N[C@@H](CC(=O)O)C(=O)COc1c(F)c(F)cc(F)c1F [MMV1580794] | 1.8 |
| Nc1cc(N)c2nc(-c3ccccc3)c(Nc3ccc(F)cc3)nc2c1 [MMV1581554] | -29.5 |
| CC(C)c1cc2c(cc1S(=O)(=O)O)[C@@]1(C)CCC[C@@](C)(C(=O)O)[C@@H]1CC2 [MMV1633675] | -25.5 |
| OB1OCc2cc(Cl)ccc21 [MMV1634363] | -17.9 |
| Nc1nc2c(ncn2[C@@H]2O[C@H](CO)[C@@H](O)[C@H]2F)c(=O)[nH]1 [MMV1633677] | -10.0 |
| CN(Cc1ccc(C(C)(C)C)cc1)Cc1cccc2ccccc12.Cl [MMV637104] | -30.4 |
| CSc1ccc2c(c1)C(N1CCN(C)CC1)Cc1ccccc1S2 (stereo not shown) [MMV002505] | 8.0 |
| Cc1ccc(NC(=O)c2cc(Cl)ccc2O)cc1 [MMV1578897] | -1.2 |
| C[C@@H](NC(=O)c1cccc(-c2cnc(-c3cc4ccccc4cn3)[nH]2)c1)c1ccc(F)cc1 [MMV1782211] | 32.8 |
| CCOC(=O)N1CCN(c2ccc(Cl)cc2)CC1 [MMV1578898] | 0.3 |
| Nc1nc(=O)[nH]cc1F [MMV004508] | -32.5 |

| SMILES | % of growth inhibition, Mean [%] |
| --- | --- |
| O=C(CSc1nnc(Br)n1-c1ccc(C2CC2)c2ccccc12)Nc1ccc(C(=O)O)cc1Cl [MMV1782213] | -4.3 |
| O=C(O)CSc1cc(NS(=O)(=O)c2cccc3cccnc23)c2ccccc2c1O [MMV218827] | -3.2 |
| c1cnc(NCc2ccc(CNc3ncccn3)cc2)nc1 [MMV1580490] | -10.6 |
| O=C(NC12CC3CC(CC(C3)C1)C2)c1cc2ccccc2[nH]1 [MMV1578577] | -4.8 |
| Cc1cc(CCOc2c(C)cc(-c3nnn(C)n3)cc2C)on1 [MMV1782349] | -3.0 |
| Nc1nc(C(F)(F)F)cc2c1[nH]c(=O)n2Cc1ccccc1 [MMV1634389] | 10.3 |
| Cc1c(OCC(F)(F)F)ccnc1C[S+]([O-])c1nc2ccccc2[nH]1 (stereo not shown) [MMV001438] | -13.2 |
| Clc1cc2nc(C3CCNCC3)n(Cc3ccc(CNCCc4c[nH]cn4)cc3)c2cc1Cl [MMV1580842] | 0.4 |
| CN(C/C=C/C#CC(C)(C)C)Cc1cccc2ccccc12 [MMV1634359] | -42.5 |
| O=[N+]([O-])c1ccc2c(CCc3c[nH]c4ccccc34)c[nH]c2c1 [MMV1593539] | -2.0 |
| O=C(NCc1ccc2c3c(cccc13)C(=O)N2)c1cccs1 [MMV1341773] | -28.3 |
| CN(C)CCCNC(=O)c1ccc(-c2cc(O)c3ncccc3c2)cc1 [MMV1580488] | 37.5 |
| CCCCCCCc1[nH]c2ccccc2c(=O)c1O [MMV1578561] | -24.4 |
| O=C(CCCC(F)(F)F)N1CCC(c2nc(-c3nccs3)no2)CC1 [MMV1582491] | -26.7 |
| O=c1ccc2ncc(=O)n3c2n1CC3CN1CCC(NCc2cc3c(cn2)OCCC3)CC1 (stereo not shown) [MMV1578568] | -14.8 |
| Nc1nc2c(ncn2COCCO)c(=O)[nH]1 [MMV001961] | -10.2 |
| O=C(CCc1ccc2c(c1)OCO2)NCc1ccc(-c2ccccc2F)cc1 [MMV1782110] | -2.8 |
| O=C(O)c1ccc(-n2nc(-c3ccccc3O)nc2-c2ccccc2O)cc1 [MMV640014] | -17.8 |
| CCCCc1ccc(C(=O)O)nc1 [MMV001726] | -15.9 |
